Measurements as given in article PMC6547740, “Potent and specific MTH1 inhibitors targeting gastric cancer” (Cell Death & Disease, 2019).
One block for each compound: values may come before it.

Columns and labels:
[1] = test system: HGC-27 cells; experiment: Colony formation assay, HGC-27; format: cell-based, human; conditions: HGC-27, 7 days treatment, compared with DMSO or MI-929
Description: (§1) The day before treatment, cells were seeded into six-well plates at a concentration of 1 × 10^3 cells per well, and then the media were replaced with fresh media containing serial concentrations of candidate compounds. After 7 days of treatment, the cells were fixed with 75% ethanol, stained with 0.1% crystal violet solution and captured by the microscopy (Leica). After that, the crystal violet crystals were dissolved by adding methanol. The absorbance at 595 nm was measured by a BioTek micro plate reader. In the end, the data were analyzed using the GraphPad Prism 5 software.

[2] = test system: MGC-803 cells; experiment: Colony formation assay, MGC-803; format: cell-based, human; conditions: MGC-803, 7 days treatment, compared with DMSO or MI-929
Description: as §1

[3] = target: T1, MTH1 (Homo sapiens, UniProt P36639); experiment: MTH1 recombinant protein activity / inhibitor screening (malachite green); format: biochemical; design: His-tag; made in house; host or cells: E. coli BL21(DE3); conditions: 5 nM recombinant MTH1, dGTP substrate, absorbance 630 nm; read-out: IC50 (MTH1 inhibition)
Description: On the basis of the ability of MTH1 in converting dGTP to dGMP and pyrophosphate, and the latter can then be hydrolyzed to […] by inorganic pyrophosphatase, the MTH1 activity was designed to measure the product of […], after its reaction with malachite green and ammonium molybdate(Fig. 2l), the green associated complex was measured at 630 nm by PerkinElmer Envision microplate reader.
Firstly, the assay buffer (100 mM Tris-acetate at pH 8.0, 40 mM NaCl, 10 mM Mg-acetate, 0.005% Tween 20 and 1 mM DTT) was added into a 96-well plate. Then, 5 nM recombinant human MTH1, […] dGTP and 0.2U/ml […] were added in sequence. After 60 min reaction, the mixture of 0.45 mg/mL malachite green and 4.2% ammonium molybdate in proportion of 3:1 were added. Then, the plates were incubated and shaken at room temperature for another 60 min. The absorbance was measured at 630 nm using the PerkinElmer Envision micro plate reader.

[4] = target: T1, MTH1; experiment: Cellular thermal shift assay (CETSA), MTH1; format: binding; design: endogenous in cells; host or cells: MGC-803 (human gastric cancer cell line); conditions: MGC-803 cells, 50 µM compound, heated 10 min from 43 to 61 °C, western blot
Description: Cellular thermal shift assay (CETSA), also known as the target engagement assay was one-way to detect the intracellular interaction ability of compounds with its specific target. Firstly, cells were seeded into T75 culture flasks and cultured overnight. Then, the cells were treated with cell media containing 1‰ DMSO as blank control and candidate compounds for 3–5 h. Next, the cells were collected by centrifugation and resuspended by PBS, then the cells were aliquoted into 7 PCR tubes and heated using PCR instrument for 10 min from 43 to 61 °C. After that, cells were lysed using liquid nitrogen and three repeated cycles of freeze-thawing. Then, samples were centrifuged at 12,000 × g for 20 min at 4 °C. Supernatants were denatured at 100 °C for 10 min and kept at −20 °C until Western Blot analysis.

[5] = test system: HGC-27 cells; experiment: MTT cell viability, HGC-27; format: cell-based; conditions: Homo sapiens, gastric cancer cell line, 72 h
Description: (§2) The cell viability was determined by 3-(4,5-dimethylthiazol-2-yl)-2,5-diphenyltetrazolium bromide (MTT) assay, according to the manufacturer’s instructions. 1 day before treatment, cells were seeded into 96-well plates at a concentration of 2–5 × 10^3 cells per well, followed by treatment with fresh medium containing serial dilutions of candidate compounds for 48 or 72 h, 20 μL of MTT solution (5 mg/mL in PBS) was then added to each well. After treatment, the plates were incubated at 37 °C for another 4 h. Subsequently, the MTT solution was removed and 150 μL of DMSO was added to each well for 10 min, and then the plates were shaken to dissolve the dark blue crystal (formazan), the absorbance was detected at 570 nm using a BioTek microplate reader. The data were analyzed using SPSS 20 software.

[6] = test system: GES-1 cells; experiment: MTT cell viability, GES-1; format: cell-based; conditions: Homo sapiens, GES1, normal gastric epithelial cell line, 72 h
Description: as §2

[7] = test system: L02 cells; experiment: MTT cell viability, L02; format: cell-based; conditions: Homo sapiens, normal liver cell line, 72 h
Description: as §2

[8] = test system: HepG2 cells; experiment: MTT cell viability, HepG2; format: cell-based; conditions: Homo sapiens, liver cancer cell line, 72 h
Description: as §2

[9] = test system: KYSE-450 cells; experiment: MTT cell viability, KYSE-450; format: cell-based; conditions: Homo sapiens, esophageal cancer cell line, 72 h
Description: as §2

[10] = test system: B16-F10 cells; experiment: MTT cell viability, B16-F10; format: cell-based; conditions: Mus musculus, 72 h
Description: as §2

[11] = test system: EC9706 cells; experiment: MTT cell viability, EC9706; format: cell-based; conditions: Homo sapiens, esophageal cancer cell line, 72 h
Description: as §2

[12] = test system: TE-1 cells; experiment: MTT cell viability, TE-1; format: cell-based; conditions: Homo sapiens, 72 h
Description: as §2

[13] = test system: MKN45 cells; experiment: MTT cell viability, MKN45; format: cell-based; conditions: Homo sapiens, MKN-45, gastric cancer cell line, 72 h
Description: as §2

[14] = test system: ZIP177 cells; experiment: MTT cell viability, ZIP177; format: cell-based; conditions: Homo sapiens, liver cancer cell line, 72 h
Description: as §2

[15] = test system: pc9 cells; experiment: MTT cell viability, pc9; format: cell-based; conditions: Homo sapiens, PC-9, 72 h
Description: as §2

[16] = test system: HL-7702 cells; experiment: MTT cell viability, HL-7702; format: cell-based; conditions: Homo sapiens, L02, normal liver cell line, 72 h
Description: as §2

[17] = test system: MCF-7 cells; experiment: MTT cell viability, MCF-7; format: cell-based; conditions: Homo sapiens, MCF7, breast cancer cell line, 72 h
Description: as §2

[18] = test system: EC109 cells; experiment: MTT cell viability, EC109; format: cell-based; conditions: Homo sapiens, ECa-109, esophageal cancer cell line, 72 h
Description: as §2

[19] = test system: MGC-803 cells; experiment: MTT cell viability, MGC-803; format: cell-based; conditions: Homo sapiens, gastric cancer cell line, 72 h
Description: as §2

[20] = test system: SMMC-7721 cells; experiment: MTT cell viability, SMMC-7721; format: cell-based; conditions: Homo sapiens, liver cancer cell line, 72 h
Description: as §2

[21] = test system: H1975 cells; experiment: MTT cell viability, H1975; format: cell-based; conditions: Homo sapiens, NCI-H1975, 72 h
Description: as §2

[22] = test system: Het-1A cells; experiment: MTT cell viability, Het-1A; format: cell-based; conditions: Homo sapiens, normal esophageal epithelial cell line, 72 h
Description: as §2

[23] = test system: SGC-7901 cells; experiment: MTT cell viability, SGC-7901; format: cell-based; conditions: Homo sapiens, gastric cancer cell line, 72 h
Description: as §2

Compound: C[C@H](Oc1cc(-c2cnn(C3CCNCC3)c2)cnc1N)c1c(Cl)ccc(F)c1Cl [(S)-crizotinib]
colony formation [1]: smaller and fewer colonies | colony formation [2]: smaller and fewer colonies

IC50 [3]: 0.4613 ± 0.00267 µM | melting point: 155 to 156 °C | temperature of MTH1 degradation [4]: 49 °C
Compound: Cc1ccc(Nc2nc(SCc3cn(CC(=O)NC(=O)Nc4ccccn4)nn3)nc(-c3ccc(Br)cc3)c2C#N)cc1 [MI-401, 2-(4-((4-(4-bromophenyl)-5-cyano-6-(p-tolylamino)pyrimidin-2-yl)thiomethyl)-1H-1,2,3-triazol-1-yl)-N-(pyridin-2-ylcarbamoyl)acetamide]

IC50 [3]: > 50 µM | IC50 [8]: > 50 µM | IC50 [10]: > 50 µM | IC50 [13]: > 50 µM | IC50 [15]: > 50 µM | IC50 [17]: > 50 µM | IC50 [19]: > 50 µM | IC50 [20]: > 50 µM | IC50 [21]: > 50 µM | temperature of MTH1 degradation [4]: 49 °C | IC50 [23]: > 50 µM
Compound: COc1ccccc1NC(=O)NC(=O)CSC(=S)N1CCCC1 [MI-929]
IC50 [5]: > 50 µM | IC50 [6]: > 50 µM | IC50 [7]: > 50 µM | IC50 [9]: > 50 µM | IC50 [11]: > 50 µM | IC50 [12]: > 50 µM | IC50 [14]: > 50 µM | IC50 [16]: > 50 µM | IC50 [18]: > 50 µM | IC50 [22]: > 50 µM

Compound: Nc1nc(NC2CC2)cc(-c2cccc(Cl)c2Cl)n1 [TH588]
colony formation [1]: smaller and fewer colonies | colony formation [2]: smaller and fewer colonies
